The text below walks through data of patent publication US10004222B2, “Small molecule ice recrystallization inhibitors and methods of use thereof” (THE UNIVERSITY OF OTTAWA, priority 2012, dated 2018).

“Also recorded” adds a separate entry of the source.

Data set [1] concerns Tf1-α cells. Nature of the data set: cryopreservation of Tf1-α cells, viability/apoptosis by flow cytometry (7-AAD, Annexin V). Format: cell-based. To be noted: 55 mM aryl-aldonamide, post-thaw. How it is done: Tf1-α cells were cultured to a final concentration of 2-3×10^6 cells/mL. Three million cells were transferred into cryovials and media were removed by aspiration after centrifugation at 1000 rpm for five minutes. 100 μL of RPMI media (10% FBS) supplemented with the cryopreservative of interest was added to the cryovial and vortexed. The cryovials were cooled at a rate of −1° C./min for 24 hours to −80° C. before being transferred to a liquid nitrogen dewar for storage until analysis.
Cryovials were thawed under fast thaw conditions (submerged in 37° C. water bath). The cells were then diluted to a concentration of 3×10^6 cells/mL with 1× Annexin V Binding Buffer and a cell count was obtained by hemacytometer (to obtain cell recovery). A 400 μL aliquot was transferred to a flow cytommetry tube. 10 μL of each Annexin V FITC (for apoptosis) and 7-AAD (for viability) dyes were added, the tube was vortexed and allowed to incubate in the dark for 15 minutes. The solution was diluted to 1 mL with 1× Annexin V Binding Buffer, vortexed and analyzed by flow cytommetry. […] With 2% DMSO, cell viability reached about 45%, and with 10% DMSO, cell viability reached around 78%.
On the technique in general: Flow cytometry measures light scatter and fluorescence of single cells or particles in a stream.

In data set [2] the test system is CD34+ cells (hematopoietic stem cells). Briefly: colony forming unit (CFU) assay after cryopreservation of umbilical cord blood. The data set is classed as cell-based, human. As to conditions: for combined results of the CFU assays vs control: UCB units 26, 27, 28 combined, FIG. 41; for BFU-E / CFU-G / CFU-GEMM / CFU-GM / CFU-M / Total Number of Colonies: 10% DMSO, post-thaw, 14 days in Methocult. How it is done:
Aliquots of LC (50,000 CD34^+ cells) are added to 2.0 mL cryovials. For each experiment, four cryovials are prepared (two for post-thaw viability analysis using flow cytometry and two for functionality analysis using the colony forming unit assay). Cryovials are kept on ice until placement in −80° C. freezer. Cryovials are centrifuged at 400 g and 10° C. for 5 minutes to pellet cells. After centrifugation, the time taken until placement in −80° C. freezer should not exceed 10 minutes. Supernatant is removed by aspiration or by decanting, but preferably by aspiration. Plasma (volume depends on desired cryosolution concentration) is added and cells are suspended by pipetting. Pre-made cryosolutions (see Cryosolutions) are added (volume depends on desired cryosolution concentration) and mixed by pipetting. Cryovials are placed in a Mr. Frosty® rate controlled freezing container which is then placed in a −80° C. freezer for 24 hours. By placing the cryovials in the freezing container, their contents undergo a cooling rate of about −1° C. per minute. After 24 hours, the cryovials are transferred to a liquid nitrogen dewar for storage until thawed for analysis.
Cryosolutions are prepared in distilled autoclaved water supplemented with 0.9% saline and 5% dextran for cryopreservation experiments and diluted with different volumes of plasma in cryovials depending on desired concentration of ice recrystallization inhibitor. N-(4-chlorophenyl)-D-gluconamide (4a) and N-(2-fluorophenyl)-D-gluconamide (2a) are prepared at 25 mM and N-(4-methoxyphenyl)-D-gluconamide (3a) and N-(2,6-difluorobenzyl)-D-gluconamide (1b) are prepared at 55 mM. 100, 50, 33 or 20 μL of 25 mM N-(4-chlorophenyl)-D-gluconamide (4a) or N-(2-fluorophenyl)-D-gluconamide (2a) are added to cryovials containing 50,000 CD34^+ cells suspended in 0, 50, 67, or 80 μL of plasma, respectively, for a final IRI concentration of 25, 12.5, 8 or 5 mM, respectively. 100, 50, 33 or 20 μL of 55 mM N-(4-methoxyphenyl)-D-gluconamide (3a) or N-(2,6-difluorobenzyl)-D-gluconamide (1b) are added to cryovials containing 50,000 CD34^+ cells suspended in 0, 50, 67, or 80 μL of plasma, respectively, for a final IRI concentration of […], 18 or 11 mM, respectively.
Cryovials are thawed in a 37° C. water bath and diluted with 900 μL of IMDM (10% FBS, 1% penicillin/streptomycin). Cryovials are placed on ice until washed. Samples are mixed by pipetting and 80 μL is transferred to a 15 mL Falcon tube. 5 mL of Iscove's Modified Dulbecco's Medium (IMDM) supplemented with 10% fetal bovine serum (FBS) is added and this mixture is centrifuged at 1100 rpm for six minutes to yield a cell pellet and a supernatant. The supernatant is removed by aspiration and the cell pellet is resuspended in 1 mL IMDM (2% FBS) to form a suspension. The suspension is mixed by pipetting. 150 μL of this cell suspension is added to 3 mL Methocult™ media and plating is performed in accordance with manufacturer's instruction. The suspension with Methocult™ media is mixed adequately by vortexing for 20 seconds. The contents are allowed to settle and bubbles are allowed to subside before plating (approximately 5-10 minutes). Using a 3 mL syringe and 16 gauge blunt needles, 2.5 mL of the cell suspension in Methocult™ is taken from the bottom. 1 mL of this 2.5 mL is added to two 5 mL cell culture dishes. The dishes are swirled to ensure cells in Methocult™ medium coat the entire bottom of the dish. A third 5 mL dish is prepared to contain distilled autoclaved water without a lid. These three 5 mL dishes are placed in a 100 mL plate; two 5 mL dishes contain 1 mL of cell suspension in Methocult™ medium with the lid on and one containing distilled autoclaved water with the lid off. The lid is placed on the 100 mL plate and stored in a 37° C. incubator (5% CO2) for two weeks.

A short description of data set [3]: splat cooling ice recrystallization inhibition (IRI) assay. How it is done:
In this assay, the area of ice crystals are measured after a 30 minute annealing time at −6.4° C. and compared to a positive control for ice recrystallization resulting in a quantitative measurement of the mean ice grain size. For a positive control, a phosphate buffered saline (PBS) solution was utilized. All samples were normalized to the PBS positive control. The ice recrystallization inhibition activity of the carbohydrate-based non-ionic surfactants n-octyl-β-D-glucopyranoside (compound 3) and n-octyl-β-D-galactopyranoside (compound 4) is shown in FIG. 1.
In this assay, the area of ice crystals are measured after a 30 minute annealing time at −6.4° C. and compared to a positive control for ice recrystallization resulting in a quantitative measurement of the mean ice grain size. For a positive control, a PBS solution was utilized. All samples were normalized to the PBS positive control.
N-aryl-D-gluconamides (3a), (2a), (4a), and (1b) are a class of low molecular weight carbohydrate-based compounds. The ice recrystallization inhibition activity of (3a), (2a), (4a), and (1b) was assessed using a “splat cooling” assay. In this assay, the area of ice crystals are measured after a 30 minutes annealing time at −6.4° C. and compared to a positive control for ice recrystallization resulting in a quantitative measurement of the mean ice grain size. For a positive control, PBS was utilized. All samples were normalized to the PBS positive control.

The mark [4] stands for this setting: 22 mM in PBS, 30 min annealing at −6.4° C.

With `O=C(Nc1ccccc1)[C@H](O)[C@@H](O)[C@H](O)[C@H](O)CO` [(1a), phenyl-aldonamide], the entries for the “Apoptosis (%)” value in data set [1] (0% DMSO), in data set [1] (2% DMSO) and in data set [1] (10% DMSO) were 0%, 0.9% and 4.22%, respectively. Also, the “Cell Viability (%)” value in data set [1] (0% DMSO) was 0.07%; in data set [1] (2% DMSO) it was 34.71%; in data set [1] (10% DMSO), 68.82%.

Take `O=C(NCc1cc(F)cc(F)c1)[C@H](O)[C@@H](O)[C@H](O)[C@H](O)CO` [(2b), N-(3,5-difluorobenzyl)-D-gluconamide]: the “combined results of the CFU assays vs control” value (shortened to “combined results … vs control”) in data set [2] is reported as “did not perform particularly well”.

In data set [2] (5 mM IRI), `O=C(Nc1ccccc1Cl)[C@H](O)[C@@H](O)[C@H](O)[C@H](O)CO` [(5a), N-(2-chlorophenyl)-D-gluconamide] displayed a BFU-E of 19.2, a CFU-G of 5.0, a CFU-GEMM of 2.3 and a CFU-GM of 5.2. In data set [2] (5 mM IRI), the CFU-M was 1.0 and the “Total Number of Colonies” value was 32.7. Further, in data set [2] (8 mM IRI), the BFU-E amounted to 18.0, the CFU-G stood at 5.0, the CFU-GEMM amounted to 2.0 and the CFU-GM is given as 4.0. In data set [2] (8 mM IRI), the CFU-M is 2.0 and the “Total Number of Colonies” value came to 31.0. In data set [2] (12.5 mM IRI), this compound yielded a BFU-E of 27.0, a CFU-G of 8.0, a CFU-GEMM of 4.5 and a CFU-GM of 6.5. In addition, in data set [2] (12.5 mM IRI), the CFU-M is reported as 1.5 and the “Total Number of Colonies” value is reported as 47.5. In addition, the “fold increase in functionality relative to the control” value in data set [2] (12.5 mM vs DMSO only) was 1.5 fold. In data set [2] (25 mM IRI), this compound returned a BFU-E of 20.5, a CFU-G of 7.0, a CFU-GEMM of 1.0 and a CFU-GM of 11.0. Also, in data set [2] (25 mM IRI), the CFU-M came out at 2.5 and the “Total Number of Colonies” value is recorded as 42.0. The “combined results … vs control” value in data set [2] was “did not perform particularly well”.

Take `O=C(Nc1ccc(F)cc1)[C@H](O)[C@@H](O)[C@H](O)[C@H](O)CO` [(6a), N-(4-Fluorophenyl)-D-gluconamide]: the “combined results … vs control” value in data set [2] is on record as “did not perform particularly well”.

`COc1ccccc1NC(=O)[C@H](O)[C@@H](O)[C@H](O)[C@H](O)CO` [(7a), N-(2-methoxyphenyl)-D-gluconamide]: the “combined results … vs control” value in data set [2] was “did not perform particularly well”.

Regarding `OC[C@@H](O)[C@H](O)[C@H](O)[C@@H](O)CO` [D-dulcitol, reference compound], in data set [3] (concentration not given), the “ice recrystallization inhibition activity” value was “decreased activity relative to the pyranose forms”.

As for `OC[C@@H](O)[C@@H](O)[C@H](O)[C@@H](O)CO` [D-sorbitol, reference compound], the “ice recrystallization inhibition activity” value in data set [3] (concentration not given) is listed as “decreased activity relative to the pyranose forms”.

As for `CCCCCCCCO[C@@H]1OC(CO)[C@@H](O)[C@H](O)C1O` (stereo partly drawn) [compound 3, n-octyl-β-D-glucopyranoside], the “ice recrystallization inhibition activity” value in data set [3] (setting [4]) was “identical to that of D-glucose”; in data set [3] (44 mM in PBS), “still identical to that of the 22 mM D-glucose”.

`CCCCCCCCO[C@@H]1OC(CO)[C@H](O)[C@H](O)C1O` (stereo partly drawn) [compound 4, n-octyl-β-D-galactopyranoside]: the “ice recrystallization inhibition activity” value in data set [3] (11 mM in PBS) was “significantly better than 22 mM D-galactose”; in data set [3] (setting [4]) it was “significantly better than 22 mM D-galactose; also recorded: potent”; in data set [3] (44 mM in PBS), “significantly better than 22 mM D-galactose”.
